Laboratory results: US11666656B2, “Polymeric conjugates and uses thereof” (Ramot at Tel-Aviv University Ltd., priority 2016, dated 2023)

Experiments:
131/4-5B1 melanoma cells = experiment: Proliferation of 131/4-5B1 melanoma cells (viable cell count); format: cell-based; conditions: Homo sapiens; 131/4-5B1 cells, 72 hours incubation
Procedure: 131/4-5B1 (human melanoma brain-metastasis cell line that was obtained from Dr. Kerbel' Lab) (15,000/well) were plated onto 24-well culture in RPMI medium supplemented with 10% FBS and incubated for 24 hours (37° C.; 5% CO2). The medium was then replaced with RPMI supplemented with 10% FBS. Cells were exposed to free selumetinib, free amine-modified dabrafenib (Scheme 8) or both, at a SLM-DBF mol ratio of 10:1 at serial dilutions. Number of viable cells was counted by a Z1 Coulter Counter® Cell and Particle Counter (Beckman Coulter®) following 72 hours incubation.
Inhibition of 131/4-5B1, human melanoma brain-metastasis cells by free selumetinib (SLM), free diol-modified dabrafenib (DBFdiol; see, Scheme 11), a combination of the free drugs at 3:1 SLM:DBFdiol mol ratio, PGA-SLM (see, Scheme 19), PGA-DBFdiol (see, Scheme 11), a combination of PGA-SLM and PGA-DBFdiol, and PGA-SLM-DBFdiol conjugate (see, Scheme 23) was determined.
131/4-5B1 cells (15,000/well) were plated onto 24-well culture in RPMI medium supplemented with 10% FBS and incubated for 24 hours (37° C.; 5% CO2). […] Cells were exposed to PGA-SLM conjugate, PGA-DBFdiol conjugate, to the combination of both at a SLM-DBF mol ratio of 10:1 and to the combined PGA-SLM-DBFdiol conjugate, calculated according to the SLM loading and assuming 10:1 mol ratio between SLM and DBF, at serial dilutions. […]

mutant BRAF = conditions: cell lines; cited from earlier work
[1] = system: MEK and ERK phosphorylation; conditions: BRAF mutated cell lines; cited from earlier work
melanoma xenografts = conditions: cited from earlier work

| SMILES | IC50 (131/4-5B1 melanoma cells) | selectivity for mutant BRAF over wild-type BRAF (mutant BRAF) | inhibition of MEK and ERK phosphorylation [1] | tumor regression (melanoma xenografts) |
| --- | --- | --- | --- | --- |
| Cn1cnc2c(F)c(Nc3ccc(Br)cc3Cl)c(C(=O)NOCCO)cc21 [SLM, Selumetinib] | 70 nM | – | – | – |
| CC(C)(C)c1nc(-c2cccc(NS(=O)(=O)c3c(F)cccc3F)c2F)c(-c2ccnc(N)n2)s1 [Dabrafenib] | – | more than 100 fold | dose-dependent inhibition | induces tumor regression |
